{
  "source": "patent US12599591B2",
  "about": "“Vemurafenib and salts thereof for use in the treatment of enteroviral infections” (Jyväskylän yliopisto, priority 2018, dated 2026)",
  "key": {"EV1 [1]": {"tested_on": "EV1", "assay": "Time of addition assay, EV1 infection of A549 cells, VP1 labeling", "assay_type": "cell-based", "details": "EV1, 5 μM, infection followed until 6 h p.i."}, "[2]": {"tested_on": "respiratory syncytial virus (RSV)", "assay_type": "cell-based", "details": "Hela cells, 5 or 10 μM, 20 h"}, "[3]": {"tested_on": "semliki forest virus (SFV)", "assay_type": "cell-based", "details": "Hela cells, 5 or 10 μM, 6 h"}, "[4]": {"tested_on": "Coxsackie virus B (CVB) serotypes (1-6)", "assay": "CVB serotypes 1-6 infection of A549 cells, crystal violet viability", "assay_type": "cell-based", "details": "18 h of infection, dose dependent", "protocol": "FIG. 2. […] Different concentrations of vemurafenib were tested against different Coxsackie virus B (CVB) serotypes (1-6) by treating A549 cells with the drug for 1 h and then infecting the cells with the viruses. Cell viability was determined after 18 h of infection using crystal violet staining. The results were normalized to control sample with no virus infection and 0 μM concentration of vemurafenib (CTRL). The values are means±SD.\nFinally, the cell viability was determined using crystal violet staining. The results were normalized to control sample with no virus infection and 0 μM concentration of vemurafenib (CTRL). The values are means±SD."}, "EV1 RNA": {"tested_on": "EV1 RNA", "assay": "Transfection of EV1 genomic RNA into A549 cells, VP1 labeling", "details": "5 μM, 6 h"}, "adenovirus 5": {"tested_on": "adenovirus 5", "assay": "Adenovirus 5 GFP transduction of A549 cells", "details": "5 μM, 17 h"}, "viral protease 2A": {"molecular_target": "viral protease 2A (Coxsackievirus B3, UniProt P03313)", "sequence (P03313 852-1001)": "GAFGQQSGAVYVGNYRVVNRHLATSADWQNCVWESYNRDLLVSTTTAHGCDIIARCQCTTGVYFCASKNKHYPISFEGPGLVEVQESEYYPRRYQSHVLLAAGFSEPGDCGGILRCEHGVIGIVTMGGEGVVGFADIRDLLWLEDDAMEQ", "assay": "Viral protease 2A action on PABP in Hela cell homogenate, western blotting", "assay_type": "biochemical", "details": "5, 10 or 20 μM, RT for 18 h", "protocol": "(§1) FIG. 18. […] The results were detected by western blotting and known cellular targets for 2A and 3C, poly A binding protein (PABP) and stress granule assembly factor 1 (G3BP1) respectively, were immunolabeled. The results are representative of two separate experiments.\n(§2) The reaction was carried out in buffer containing 20 mM HEPES (pH 7.4), 0.12 M KCH3COO, 4 mM Mg(CH3COO)2 and 5 mM DTT with or without vemurafenib (5, 10 or 20 μM) being present. The reactions were carried out at RT for 18 h, after which they were terminated by adding Laemmli sample buffer and heating at 100° C. for 9 min. The samples were run in 4-20% Miniprotean TGX stain free gel (Biorad). The gel was UV-activated for 5 min with Chemidoc MP (Biorad) to reveal the total protein amount, after which the proteins were transferred to PVDF membrane (Immobilon-P, Merck Millipore). Next, the blot was blocked o/n with 5% BSA in 0.05% tween in TBS. Poly A binding protein (PABP) was detected using 1:100 dilution of mouse anti-PABP (Santa Cruz). Stress granule assembly factor 1 G3BP1 was detected using 1:1000 dilution of mouse anti-G3BP1 (Santa Cruz)."}, "Echovirus 1 (EV1)": {"tested_on": "Echovirus 1 (EV1)", "assay_type": "cell-based, Farouk strain"}, "[5]": {"tested_on": "Coxsackie virus A9 (CVA9)", "assay": "CVA9 infection of A549 cells, cell viability (CTG assay / crystal violet)", "assay_type": "cell-based, Griggs strain", "details": "18 h post infection", "protocol": "(§3) FIG. 1. […] A549 cells were treated for 1 h with different concentrations of vemurafenib before Echovirus 1 (EV1), Coxsackie virus B3 (CVB3) or Coxsackie virus A9 (CVA9) infection, and vemurafenib was present after addition of viruses. Further, non-infected control cells were included. After 18 h post infection, the cell viability was determined by cell viability Glo-titer assay according to the instructions by the manufacturer (CTG assay, which measures cellular ATP levels, Promega; left figure) or crystal violet staining as described before (right figure; Martikainen et al., 2015). Values are means±SD.\n(§4) Adenocarcinoma human alveolar basal epithelial (A549, ATCC) cells were cultured in Dulbecco's modified eagle medium (DMEM; Gibco) supplemented with 10% fetal bovine serum (FBS; Gibco), 1% Glutamax (Gibco) and 1% penicillin and streptomycin antibiotics (Gibco) for 24 h. […] In addition, non-infected control cells were included. After 18 h post infection (p.i.), the cell viability was determined by cell titer-Glo assay according to the instructions by the manufacturer (CTG assay, which measures cellular ATP levels, Promega; left figure) or crystal violet staining as described before (right figure; Martikainen et al. 2015). Values are means±SD."}, "HPEV1 IRES": {"tested_on": "HPEV1 IRES", "assay_type": "cell-based, HPEV1 strain 22 Harris", "details": "Hela cells, 5 μM, 24 h"}, "EV1 particle": {"tested_on": "EV1 particle", "assay": "Real-time spectroscopic assay of EV1 particle opening (Sybr green II)", "details": "5 μM, 3 h at +37° C."}, "[6]": {"tested_on": "Coxsackie virus B3 (CVB3)", "assay": "CVB3 infection of A549 cells, cell viability (CTG assay / crystal violet)", "assay_type": "cell-based, Nancy strain", "details": "18 h post infection", "protocol": "as §3, §4"}, "EV1 [7]": {"tested_on": "EV1", "assay": "Uncoating of radioactively labeled EV1 in endosomes of A549 cells, sucrose gradients", "details": "5 μM, 4 h p.i."}, "[8]": {"tested_on": "human parechovirus 1 (HPEV1)", "assay_type": "cell-based", "details": "A549 cells, 5 μM, 6 h"}, "EV1-infected A549 cells": {"tested_on": "EV1-infected A549 cells", "assay_type": "cell-based, human"}, "[9]": {"tested_on": "human rhinovirus B14 (HRVB14)", "assay": "HRVB14 replication in Hela cells by dsRNA (J2) labeling", "details": "5 μM, 6 h at +34° C."}, "CV-B4 E2": {"tested_on": "CV-B4 E2", "assay": "CVB4 infection in mice, infectious viral titer in heart and pancreas", "assay_type": "in vivo, Hsd:ICR(CD-1) female mice", "details": "10 mg/kg intraperitoneally once a day for 5 days, sacrificed on day 6"}, "3D polymerase of CVB3": {"molecular_target": "3D polymerase of CVB3 (Coxsackievirus B3, UniProt P03313)", "sequence (P03313 1724-2185)": "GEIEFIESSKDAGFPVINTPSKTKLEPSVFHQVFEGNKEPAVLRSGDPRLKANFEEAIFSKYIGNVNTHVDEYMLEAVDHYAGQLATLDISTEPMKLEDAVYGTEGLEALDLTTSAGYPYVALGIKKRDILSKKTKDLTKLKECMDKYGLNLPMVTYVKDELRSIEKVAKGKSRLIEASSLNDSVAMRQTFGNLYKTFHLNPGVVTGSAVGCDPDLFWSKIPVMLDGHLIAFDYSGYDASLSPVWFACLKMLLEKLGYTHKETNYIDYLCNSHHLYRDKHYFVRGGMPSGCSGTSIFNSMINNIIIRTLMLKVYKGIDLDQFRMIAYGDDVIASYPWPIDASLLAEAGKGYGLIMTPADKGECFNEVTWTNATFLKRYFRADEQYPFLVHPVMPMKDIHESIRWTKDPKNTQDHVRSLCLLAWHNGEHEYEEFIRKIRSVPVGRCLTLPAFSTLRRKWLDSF", "assay": "RNA elongation assay with viral 3D polymerase", "assay_type": "biochemical", "details": "various inhibitor concentrations, RT", "protocol": "FIG. 19. […] An RNA elongation assay was used to study the effect of vemurafenib on viral 3D polymerase. […] At 15 min, GTP and ATP were added along with RNA2 (SEQ ID NO:2) allowing 3D+RNA1 complexes to incorporate ATP and GTP (forming +2 product) as well as initiate and incorporate GTP and RNA2 (forming +1 product). After 10 min, each reaction was “chased” to fully elongated product by adding the remaining NTPs.\nAn RNA elongation assay was used to study the effect of vemurafenib on viral 3D polymerase. […] At 15 min, GTP and ATP were added along with RNA2 (SEQ ID NO: 2) allowing 3D+RNA1 complexes to incorporate ATP and GTP (forming +2 product) as well as initiate and incorporate GTP and RNA2 (forming +1 product). After 10 min, each reaction was “chased” to fully elongated product by adding the remaining NTPs."}, "EV1 [10]": {"tested_on": "EV1", "assay": "EV1 replication in A549 cells by dsRNA (J2) labeling", "assay_type": "cell-based", "details": "5 μM, 3, 4 or 6 h p.i."}, "influenza A(H1N1)pdm09": {"tested_on": "influenza A(H1N1)pdm09", "details": "reported by McKimm-Breschkin et al.; cited from earlier work"}, "CVB4": {"tested_on": "CVB4", "assay": "Persistent CVB4 infection of Panc-1 cells, viral titers and viral RNA", "assay_type": "cell-based", "details": "7.5 μM each 2 to 3 days"}, "[11]": {"tested_on": "CVB4 E2 diabetogenic strain", "assay": "CVB4 infection of Min-6 pancreatic beta cells, crystal violet viability", "assay_type": "cell-based", "details": "mouse pancreatic beta cell line Min-6, 0.25-7.5 μM, MOI of 1, crystal violet"}, "viral protease 3C": {"molecular_target": "viral protease 3C (Coxsackievirus B3, UniProt P03313)", "sequence (P03313 1541-1723)": "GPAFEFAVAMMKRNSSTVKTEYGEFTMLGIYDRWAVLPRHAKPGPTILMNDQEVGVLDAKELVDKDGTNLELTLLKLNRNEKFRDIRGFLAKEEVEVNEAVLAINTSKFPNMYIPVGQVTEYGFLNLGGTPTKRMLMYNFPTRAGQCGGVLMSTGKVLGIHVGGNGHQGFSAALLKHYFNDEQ", "assay": "Viral protease 3C action on G3BP1 in Hela cell homogenate, western blotting", "assay_type": "biochemical", "details": "5, 10 or 20 μM, RT for 18 h", "protocol": "as §1, §2"}, "EV1 IRES": {"tested_on": "EV1 IRES", "assay_type": "cell-based, EV1 Farouk strain", "details": "Hela cells, 5 μM, 24 h"}, "[12]": {"tested_on": "vesicular stomatitis virus (VSV)", "assay_type": "cell-based"}, "Poliovirus 3": {"tested_on": "Poliovirus 3", "assay_type": "cell-based, polio-3 (vaccine strain)", "details": "A549 cells, 2 days of infection, Cell Titer Glo"}, "[13]": {"details": "1 h pre-treatment, dose dependent"}},
  "data": [
    {"compound": "CCCS(=O)(=O)Nc1ccc(F)c(C(=O)c2c[nH]c3ncc(-c4ccc(Cl)cc4)cc23)c1F", "note": "[vemurafenib, N-(3-(5-(4-chlorophenyl)-1H-pyrrolo[2,3-b]pyridine-3-carbonyl)-2,4-difluorophenyl)propane-1-sulfonamide]", "values": [
      {"measurement": "time of administration at which efficacy is lost", "setting": "EV1 [1]", "result": "≥ 3", "unit": "h p.i."},
      {"measurement": "effect on RSV infection (GFP infection percentage)", "setting": "[2]", "result": "not effective"},
      {"measurement": "effect on SFV infection (GFP infection percentage)", "setting": "[3]", "result": "not effective"},
      {"measurement": "effect on infection by CVB serotypes 1 to 6 (cell viability)", "setting": "[4]", "result": "inhibited"},
      {"measurement": "effect on infection after transfection of genomic RNA of EV1", "setting": "EV1 RNA", "result": "totally prevented infection"},
      {"measurement": "effect on adenovirus 5 transduction (GFP positive cells)", "setting": "adenovirus 5", "result": "not effective"},
      {"measurement": "effect on viral protease 2A action (PABP)", "setting": "viral protease 2A", "result": "does not have direct effects"},
      {"measurement": "effect on EV1 infection (cell viability)", "setting": "Echovirus 1 (EV1)", "result": "prevents the infection"},
      {"measurement": "effect on CVA9 infection (cell viability)", "setting": "[5]; [13]", "result": "rescued the cells"},
      {"measurement": "concentration of maximal inhibition of CVA9 infection", "setting": "[5]", "result": 5, "unit": "µM"},
      {"measurement": "effect on HPEV1 IRES-based translation (mCherry fluorescence)", "setting": "HPEV1 IRES", "result": "does not have direct effects"},
      {"measurement": "direct virucidal effect on EV1 particle (genome release)", "setting": "EV1 particle", "result": "does not have direct virucidal effects"},
      {"measurement": "effect on CVB3 infection (cell viability)", "setting": "[6]; [13]", "result": "rescued the cells"},
      {"measurement": "concentration of maximal inhibition of CVB3 infection", "setting": "[6]", "result": 5, "unit": "µM"},
      {"measurement": "effect on uncoating of EV1 inside endosomes", "setting": "EV1 [7]", "result": "does not affect the uncoating"},
      {"measurement": "effect on HPEV1 infection (VP1 positive cells)", "setting": "[8]", "result": "not effective"},
      {"measurement": "effects on BRAF in the transcriptomics study", "setting": "EV1-infected A549 cells", "result": "no effects"},
      {"measurement": "effect on EV1-induced up- or downregulation of mRNAs", "setting": "EV1-infected A549 cells; A549 cells, 6 h pi, Illumina Human HT-12 v4", "result": "attenuated almost all the effects of the virus"},
      {"measurement": "effect on HRVB14 replication (dsRNA J2 intensity)", "setting": "[9]", "result": "decreases the replication"},
      {"measurement": "levels of infectious CVB4 in heart tissue", "setting": "CV-B4 E2", "result": "significantly decreased"},
      {"measurement": "levels of infectious CVB4 in pancreas tissue", "setting": "CV-B4 E2", "result": "significantly decreased"},
      {"measurement": "effect on CVB3 3D polymerase action", "setting": "3D polymerase of CVB3", "result": "does not prevent its action, nor binding or elongation of the nascent RNA chain"},
      {"measurement": "effect on EV1 replication (replication intermediate, dsRNA)", "setting": "EV1 [10]", "result": "prevented"},
      {"measurement": "efficacy against influenza A(H1N1)pdm09 infection compared with oseltamivir", "setting": "influenza A(H1N1)pdm09", "result": "greater efficacy than oseltamivir"},
      {"measurement": "presence of viral RNA in persistently infected Panc-1 cells", "setting": "CVB4; qPCR at day 7, 9, 14 and 21", "result": "totally eradicated"},
      {"measurement": "level of infectious viral particles (capsid) in persistently infected Panc-1 cells", "setting": "CVB4; supernatant titers on HEp-2 cells", "result": "totally eradicated"},
      {"measurement": "effect on CVB4 infection of Min-6 cells (cell viability)", "setting": "[11]", "result": "efficiently rescued"},
      {"measurement": "effect on viral protease 3C action (G3BP1)", "setting": "viral protease 3C", "result": "does not have direct effects"},
      {"measurement": "effect on EV1 IRES-based translation (mCherry fluorescence)", "setting": "EV1 IRES", "result": "does not have direct effects"},
      {"measurement": "effect on VSV infection (GFP infection percentage)", "setting": "[12]", "result": "not effective"},
      {"measurement": "effect on polio-3 infection (cell viability)", "setting": "Poliovirus 3", "result": "efficiently rescued"}
    ]}
  ]
}
